What was measured:
[1] = molecular target: T1, M3 muscarinic acetylcholine receptor (mAChR) (Homo sapiens, UniProt P20309); assay: FLIPR calcium assay (Fluo 8), M3-overexpressing CHO-K1 cells; type: cell-based; conditions: FLIPR calcium
T1 construct: expressed in transfected cells; host or cells: CHO-K1
In short: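 CHO-K1 cells overexpressing each human receptor seeded at 15,000 per well, grown overnight at 37° C., 5% CO2, then loaded with Fluo-8 for 30 min. Compounds in HBSS added and calcium response read on FLIPR; EC50 and Emax calculated per subtype.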

M4 mAChR = molecular target: T2, M4 mAChR (Homo sapiens, UniProt P08173); assay: cAMP TR-FRET assay with forskolin, M4-overexpressing CHO-K1 cells; type: cell-based; conditions: cAMP TR-FRET with forskolin
T2 construct: expressed in transfected cells; host or cells: CHO-K1
T2 sequence (P08173 1-479): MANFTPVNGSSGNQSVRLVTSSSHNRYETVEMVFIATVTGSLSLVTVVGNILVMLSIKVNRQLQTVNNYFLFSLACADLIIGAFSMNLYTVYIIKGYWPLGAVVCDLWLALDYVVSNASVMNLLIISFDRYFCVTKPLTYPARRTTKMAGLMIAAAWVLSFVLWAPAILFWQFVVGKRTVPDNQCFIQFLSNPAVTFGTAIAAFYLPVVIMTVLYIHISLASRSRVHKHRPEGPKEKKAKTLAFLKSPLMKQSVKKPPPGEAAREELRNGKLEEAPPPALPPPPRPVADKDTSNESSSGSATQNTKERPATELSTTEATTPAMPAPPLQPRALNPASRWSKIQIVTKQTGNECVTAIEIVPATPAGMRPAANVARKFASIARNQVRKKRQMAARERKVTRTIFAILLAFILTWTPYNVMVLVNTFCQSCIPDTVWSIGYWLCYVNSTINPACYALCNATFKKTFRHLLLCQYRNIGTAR
In short: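 CHO-K1 cells overexpressing the receptor were stimulated with forskolin to raise cAMP, so that Gi-mediated agonist decreases could be measured. cAMP was quantified by TR-FRET competition between cellular cAMP and labelled donor for anti-cAMP antibody, giving potency and efficacy.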

T1 sequence (P20309 whole entry): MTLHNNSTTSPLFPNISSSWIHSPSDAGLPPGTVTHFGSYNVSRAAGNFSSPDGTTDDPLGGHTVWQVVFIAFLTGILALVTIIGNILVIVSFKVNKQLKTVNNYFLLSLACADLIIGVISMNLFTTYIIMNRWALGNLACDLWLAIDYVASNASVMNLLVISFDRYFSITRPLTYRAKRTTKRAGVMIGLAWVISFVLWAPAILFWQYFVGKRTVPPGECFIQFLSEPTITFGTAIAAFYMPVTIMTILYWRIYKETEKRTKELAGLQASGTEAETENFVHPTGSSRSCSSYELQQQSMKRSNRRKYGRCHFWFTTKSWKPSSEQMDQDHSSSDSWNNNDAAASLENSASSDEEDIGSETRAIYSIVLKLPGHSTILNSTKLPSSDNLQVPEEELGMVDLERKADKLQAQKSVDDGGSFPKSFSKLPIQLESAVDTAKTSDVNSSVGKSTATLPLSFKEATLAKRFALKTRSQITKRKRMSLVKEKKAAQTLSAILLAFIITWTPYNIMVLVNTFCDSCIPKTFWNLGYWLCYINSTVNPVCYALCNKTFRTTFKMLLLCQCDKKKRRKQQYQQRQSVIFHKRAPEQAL

SMILES	EC50 [1] [µM]	Emax (M4 mAChR) [%]
CCOC(=O)N1CC2(CC[C@@H](N3CCN(c4cc(F)cnc4-c4cnc(N(C)C)nc4)CC3)C2)C1 [Compound A73]	> 10	80 to 100
CCOC(=O)N1CC2(CC[C@@H](N3CCN(c4cc(F)cnc4-c4ccnn4CC(C)C)CC3)C2)C1 [Compound A77]	> 10	80 to 100
CCOC(=O)N1CC2(CC[C@@H](N3CCN(c4cc(F)cnc4-c4c(C)noc4C)CC3)C2)C1 [Compound A78]	> 10	80 to 100
CCOC(=O)N1CC2(CC[C@@H](N3CCN(c4cc(F)cnc4-c4cnc(F)c(F)c4)CC3)C2)C1 [Compound A79]	> 10	80 to 100
CCOC(=O)N1CC2(CC[C@@H](N3CCN(c4cc(F)cnc4-c4c(C)n[nH]c4C)CC3)C2)C1 [Compound A81]	> 10	80 to 100
CCOC(=O)N1CC2(CC[C@@H](N3CCN(c4cc(F)cnc4-c4cnc(C#N)c(F)c4)CC3)C2)C1 [Compound A83]	> 10	80 to 100
C=CCn1cc(-c2ncc(F)cc2N2CCN([C@@H]3CCC4(C3)CN(C(=O)OCC)C4)CC2)cn1 [Compound A84]	> 10	80 to 100
CCOC(=O)N1CC2(CC[C@@H](N3CCN(c4cc(F)cnc4-c4c[nH]nc4C(F)(F)F)CC3)C2)C1 [Compound A85]	> 10	80 to 100
CCOC(=O)N1CC2(CC[C@@H](N3CCN(c4cc(F)cnc4-c4csc(CO)c4)CC3)C2)C1 [Compound A86]	> 10	80 to 100
CCOC(=O)N1CC2(CC[C@@H](N3CCN(c4cc(F)cnc4-c4ccc(CO)s4)CC3)C2)C1 [Compound A88]	> 10	80 to 100
CCOC(=O)N1CC2(CC[C@@H](N3CCN(c4cc(F)cnc4-c4ccnc5c4ccn5C)CC3)C2)C1 [Compound A89]	> 10	80 to 100
CCOC(=O)N1CC2(CC[C@@H](N3CCN(c4cc(F)cnc4-c4cccc(CCO)c4)CC3)C2)C1 [Compound A90]	> 10	80 to 100
CCOC(=O)N1CC2(CC[C@@H](N3CCN(c4cc(F)cnc4-c4ccn5ccnc5c4)CC3)C2)C1 [Compound A92]	> 10	80 to 100
CCOC(=O)N1CC2(CC[C@@H](N3CCN(c4cc(F)cnc4-c4ccc(C#N)cc4OC)CC3)C2)C1 [Compound A94]	> 10	80 to 100
CCOC(=O)N1CC2(CC[C@@H](N3CCN(c4cc(F)cnc4-c4ccc5c(c4)OCCN5)CC3)C2)C1 [Compound A95]	> 10	80 to 100
CCOC(=O)N1CC2(CC[C@@H](N3CCN(c4cc(F)cnc4-c4ccc5nccn5c4)CC3)C2)C1 [Compound A96]	> 10	80 to 100
CCOC(=O)N1CC2(CC[C@@H](N3CCN(c4cc(F)cnc4-c4cccc(C(=O)NC)c4)CC3)C2)C1 [Compound A97]	> 10	80 to 100
CCOC(=O)N1CC2(CC[C@@H](N3CCN(c4cc(F)cnc4-c4ccnc(C)c4)CC3)C2)C1 [Compound A98]	> 10	80 to 100
CCOC(=O)N1CC2(CC[C@@H](N3CCN(c4cc(F)cnc4-c4cnc5c(ccn5C)c4)CC3)C2)C1 [Compound A99]	> 10	80 to 100
CCOC(=O)N1CC2(CC[C@@H](N3CCN(c4cc(F)cnc4-c4cc(C)[nH]n4)CC3)C2)C1 [Compound A101]	> 10	80 to 100
CCOC(=O)N1CC2(CC[C@@H](N3CCN(c4cc(F)cnc4-c4ccn(C)c(=O)c4)CC3)C2)C1 [Compound A102]	> 10	80 to 100
CCOC(=O)N1CC2(CC[C@@H](N3CCN(c4cc(F)cnc4-c4ccc(F)c(CO)c4)CC3)C2)C1 [Compound A105]	> 10	80 to 100
CCOC(=O)N1CC2(CC[C@@H](N3CCN(c4cc(F)cnc4-c4ccnc(OC)c4F)CC3)C2)C1 [Compound A106]	> 10	80 to 100
CCOC(=O)N1CC2(CC[C@@H](N3CCN(c4cc(F)cnc4-c4ccc(OCC)nc4)CC3)C2)C1 [Compound A107]	> 10	80 to 100
CCOC(=O)N1CC2(CC[C@@H](N3CCN(c4cc(F)cnc4-c4cc(C)cnc4F)CC3)C2)C1 [Compound A108]	> 10	80 to 100
CCOC(=O)N1CC2(CC[C@@H](N3CCN(c4cc(F)cnc4-c4cccnc4C)CC3)C2)C1 [Compound A109]	> 10	80 to 100
CCOC(=O)N1CC2(CC[C@@H](N3CCN(c4cc(F)cnc4-c4ccnc(OC)c4)CC3)C2)C1 [Compound A110]	> 10	80 to 100

SMILES	EC50 [1] [µM]	Emax (M4 mAChR) [%]
CCOC(=O)N1CC2(CC[C@@H](N3CCN(c4cc(F)cnc4-c4cnc(OC)c(C)c4)CC3)C2)C1 [Compound A111]	> 10	80 to 100
CCOC(=O)N1CC2(CC[C@@H](N3CCN(c4cc(F)cnc4-c4ccc(OC)c(F)c4)CC3)C2)C1 [Compound A112]	> 10	80 to 100
CCOC(=O)N1CC2(CC[C@@H](N3CCN(c4cc(F)cnc4-c4ccnc(F)c4C)CC3)C2)C1 [Compound A114]	> 10	80 to 100
CCOC(=O)N1CC2(CC[C@@H](N3CCN(c4cc(F)cnc4-c4ccc(F)cc4O)CC3)C2)C1 [Compound A115]	> 10	80 to 100
CCOC(=O)N1CC2(CC[C@@H](N3CCN(c4cc(F)cnc4-c4ccc(C)nc4OC)CC3)C2)C1 [Compound A116]	> 10	80 to 100
CCOC(=O)N1CC2(CC[C@@H](N3CCN(c4cc(F)cnc4-c4cc(F)ccc4CO)CC3)C2)C1 [Compound A117]	> 10	80 to 100
CCOC(=O)N1CC2(CC[C@@H](N3CCN(c4cc(F)cnc4-c4cccc(F)c4O)CC3)C2)C1 [Compound A118]	> 10	80 to 100
CCOC(=O)N1CC2(CC[C@@H](N3CCN(c4cc(F)cnc4-c4cc(F)nc(F)c4)CC3)C2)C1 [Compound A119]	> 10	80 to 100
CCOC(=O)N1CC2(CC[C@@H](N3CCN(c4cc(F)cnc4-c4ccn(C)n4)CC3)C2)C1 [Compound A120]	> 10	80 to 100
CCOC(=O)N1CC2(CC[C@@H](N3CCN(c4cc(F)cnc4-c4ccn(CC)n4)CC3)C2)C1 [Compound A121]	> 10	80 to 100
CCOC(=O)N1CC2(CC[C@@H](N3CCN(c4cc(F)cnc4-c4cncc(OCC)c4)CC3)C2)C1 [Compound A122]	> 10	80 to 100
CCOC(=O)N1CC2(CC[C@@H](N3CCN(c4cc(F)cnc4-c4ccc(=O)n(C)c4)CC3)C2)C1 [Compound A123]	> 10	80 to 100
CCOC(=O)N1CC2(CC[C@@H](N3CCN(c4cc(F)cnc4-c4cnc(N5CCC5)nc4)CC3)C2)C1 [Compound A124]	> 10	80 to 100
CCOC(=O)N1CC2(CC[C@@H](N3CCN(c4cc(F)cnc4-c4cc(C)nc(F)c4)CC3)C2)C1 [Compound A125]	> 10	80 to 100
CCOC(=O)N1CC2(CC[C@@H](N3CCN(c4cc(F)cnc4-c4cnn(C5COC5)c4)CC3)C2)C1 [Compound A126]	> 10	80 to 100
CCOC(=O)N1CC2(CC[C@@H](N3CCN(c4cc(F)cnc4-c4cc(O)ccc4F)CC3)C2)C1 [Compound A127]	> 10	80 to 100
CCOC(=O)N1CC2(CC[C@@H](N3CCN(c4cc(F)cnc4-c4cccc(F)n4)CC3)C2)C1 [Compound A128]	> 10	80 to 100
CCOC(=O)N1CC2(CC[C@@H](N3CCN(c4cc(F)cnc4-c4cnc5c(cnn5C)c4)CC3)C2)C1 [Compound A129]	> 10	80 to 100
CCOC(=O)N1CC2(CC[C@@H](N3CCN(c4cc(F)cnc4-c4ccc5c(c4)OCO5)CC3)C2)C1 [Compound A130]	> 10	80 to 100
CCOC(=O)N1CC2(CC[C@@H](N3CCN(c4cc(F)cnc4-c4ccc5c(c4)ncn5C)CC3)C2)C1 [Compound A131]	> 10	80 to 100
CCOC(=O)N1CC2(CC[C@@H](N3CCN(c4cc(F)cnc4-c4cnc(OCC)nc4)CC3)C2)C1 [Compound A132]	> 10	80 to 100
CCOC(=O)N1CC2(CC[C@@H](N3CCN(c4cc(F)cnc4-c4cccc(OC)n4)CC3)C2)C1 [Compound A133]	> 10	19 to 49.9
CCOC(=O)N1CC2(CC[C@@H](N3CCN(c4cc(F)cnc4-c4ccc(CO)c(C)c4)CC3)C2)C1 [Compound A134]	> 10	80 to 100
CCOC(=O)N1CC2(CC[C@@H](N3CCN(c4cc(F)cnc4-c4cccc(C)n4)CC3)C2)C1 [Compound A135]	> 10	19 to 49.9
CCOC(=O)N1CC2(CC[C@@H](N3CCN(c4cc(F)cnc4-c4ccc(O)cc4F)CC3)C2)C1 [Compound A136]	> 10	80 to 100
CCOC(=O)N1CC2(CC[C@@H](N3CCN(c4cc(F)cnc4-c4ccc(OC)nc4C)CC3)C2)C1 [Compound A137]	> 10	80 to 100
